Laboratory results: patent US20260262643A1, “HERBICIDAL BENZOXAZINES” (FMC CORPORATION, priority 2022, published 2026)

Key:
[1] = tested on: barnyardgrass; experiment: Test C preemergence; format: in vivo, Echinochloa crusgalli
Procedure, shortened: (§1)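 Greenhouse herbicide screen, 10-day duration. Test chemicals in solvent/surfactant blend were sprayed onto soil at sowing (pre) or onto 2–10 cm seedlings at one to two leaves (post); injury scored visually against controls, 0 no effect to 100 complete control.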

[2] = tested on: blackgrass; experiment: Test C preemergence; format: in vivo, Alopecurus myosuroides
Procedure, shortened: as §1

[3] = tested on: corn; experiment: Test C preemergence; format: in vivo, Zea mays
Procedure, shortened: as §1

[4] = tested on: foxtail, giant; experiment: Test C preemergence; format: in vivo, Setaria faberi
Description: (§2) Seeds of plant species selected from barnyardgrass (Echinochloa crusgalli), blackgrass (Alopecurus myosuroides), corn (Zea mays), foxtail, giant (giant foxtail, Setaria faberi), green foxtail (Setaria viridis), goosegrass (Eleusine indica), kochia (Bassia scoparia), oat, wild (wild oat, Avena fatua), pigweed, palmer (palmer amaranth, palmer pigweed, Amaranthus palmeri), Pigweed, Redroot (redroot pigweed, Amaranthus retroflexus), ragweed (common ragweed, Ambrosia artemisiifolia), ryegrass, Italian ([…] ryegrass, Lolium multiflorum), soybean (Glycine max), and wheat (Triticum aestivum) were planted into a blend of loam soil and sand and treated preemergence with a directed soil spray using test chemicals formulated in a non-phytotoxic solvent mixture which included a surfactant. At the same time, plants selected from these crops and weed species and also galium (catchweed bedstraw, Galium aparine) and horseweed (Erigeron canadensis) were planted in pots containing the same blend of loam soil and sand and treated with postemergence applications of test chemicals formulated in the same manner. Plants ranged in height from 2 to 10 cm and were in the one- to two-leaf stage for the postemergence treatment. Treated plants and untreated controls were maintained in a greenhouse for 10 days, after which time all treated plants were compared to untreated controls and visually evaluated for injury. Plant response ratings, summarized in Table C, are based on a 0 to 100 scale where 0 is no effect and 100 is complete control. A dash (-) response means no test result.

[5] = tested on: kochia; experiment: Test C preemergence; format: in vivo, Bassia scoparia
Procedure, shortened: as §1

[6] = tested on: oat, wild; experiment: Test C preemergence; format: in vivo, Avena fatua
Procedure, shortened: as §1

[7] = tested on: pigweed, palmer; experiment: Test C preemergence; format: in vivo, Amaranthus palmeri
Procedure, shortened: as §1

[8] = tested on: ragweed; experiment: Test C preemergence; format: in vivo, Ambrosia artemisiifolia
Procedure, shortened: as §1

[9] = tested on: ryegrass, Italian; experiment: Test C preemergence; format: in vivo, Lolium multiflorum
Procedure, shortened: as §1

[10] = tested on: soybean; experiment: Test C preemergence; format: in vivo, Glycine max
Procedure, shortened: as §1

[11] = tested on: wheat; experiment: Test C preemergence; format: in vivo, Triticum aestivum
Procedure, shortened: as §1

[12] = tested on: barnyardgrass; experiment: Test C postemergence; format: in vivo, Echinochloa crusgalli; details: 10 days, 0 to 100 scale (0 no effect, 100 complete control)
Procedure, shortened: as §1

[13] = tested on: blackgrass; experiment: Test C postemergence; format: in vivo, Alopecurus myosuroides; details: 10 days, 0 to 100 scale (0 no effect, 100 complete control)
Procedure, shortened: as §1

[14] = tested on: corn; experiment: Test C postemergence; format: in vivo, Zea mays; details: 10 days, 0 to 100 scale (0 no effect, 100 complete control)
Procedure, shortened: as §1

[15] = tested on: foxtail, giant; experiment: Test C postemergence; format: in vivo, Setaria faberi; details: 10 days, 0 to 100 scale (0 no effect, 100 complete control)
Description: as §2

[16] = tested on: kochia; experiment: Test C postemergence; format: in vivo, Bassia scoparia; details: 10 days, 0 to 100 scale (0 no effect, 100 complete control)
Procedure, shortened: as §1

[17] = tested on: oat, wild; experiment: Test C postemergence; format: in vivo, Avena fatua; details: 10 days, 0 to 100 scale (0 no effect, 100 complete control)
Procedure, shortened: as §1

[18] = tested on: pigweed, palmer; experiment: Test C postemergence; format: in vivo, Amaranthus palmeri; details: 10 days, 0 to 100 scale (0 no effect, 100 complete control)
Procedure, shortened: as §1

[19] = tested on: ragweed; experiment: Test C postemergence; format: in vivo, Ambrosia artemisiifolia; details: 10 days, 0 to 100 scale (0 no effect, 100 complete control)
Procedure, shortened: as §1

[20] = tested on: ryegrass, Italian; experiment: Test C postemergence; format: in vivo, Lolium multiflorum; details: 10 days, 0 to 100 scale (0 no effect, 100 complete control)
Procedure, shortened: as §1

[21] = tested on: soybean; experiment: Test C postemergence; format: in vivo, Glycine max; details: 10 days, 0 to 100 scale (0 no effect, 100 complete control)
Procedure, shortened: as §1

[22] = tested on: wheat; experiment: Test C postemergence; format: in vivo, Triticum aestivum; details: 10 days, 0 to 100 scale (0 no effect, 100 complete control)
Procedure, shortened: as §1

[23] = tested on: galium; experiment: Test C postemergence; format: in vivo, Galium aparine; details: 10 days, 0 to 100 scale (0 no effect, 100 complete control)
Procedure, shortened: as §1

[24] = tested on: horseweed; experiment: Test C postemergence; format: in vivo, Erigeron canadensis; details: 10 days, 0 to 100 scale (0 no effect, 100 complete control)
Procedure, shortened: as §1

[25] = tested on: barnyardgrass; experiment: Test D flooded paddy test; format: in vivo, Echinochloa crus-galli; details: 250 g ai/ha, applied to paddy water, visual rating after 13 to 14 days, scale 0 to 100 (0 no effect, 100 complete control)
Procedure, shortened: (§3)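 2-leaf plants; flood 3 cm above soil; compound dosed into paddy water; greenhouse 13–14 d; visual rating vs controls, 0–100 (100 = complete control); dash = not tested.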

[26] = tested on: ducksalad; experiment: Test D flooded paddy test; format: in vivo, Heteranthera limosa; details: 250 g ai/ha, applied to paddy water, visual rating after 13 to 14 days, scale 0 to 100 (0 no effect, 100 complete control)
Procedure, shortened: as §3

[27] = tested on: rice; experiment: Test D flooded paddy test; format: in vivo, Oryza sativa; details: 250 g ai/ha, applied to paddy water, visual rating after 13 to 14 days, scale 0 to 100 (0 no effect, 100 complete control)
Procedure, shortened: as §3

[28] = tested on: sedge, umbrella; experiment: Test D flooded paddy test; format: in vivo, Cyperus difformis; details: 250 g ai/ha, applied to paddy water, visual rating after 13 to 14 days, scale 0 to 100 (0 no effect, 100 complete control)
Procedure, shortened: as §3

[29] = 500 g ai/ha, preemergence, 0 to 100 scale (0 no effect, 100 complete control)
[30] = Preemergence, 125 g ai/ha, 0 to 100 scale, 0 no effect, 100 complete control

Cc1cccc2c1OC(C(F)(F)F)CN2C(=O)c1ccnc(-n2cnc(C(C)C)n2)c1 (single isomer, unassigned) [Compound 328]
40: Plant response rating, Pigweed, Palmer [7, 30] | Plant response rating, Oat, Wild ([17]; 500 g ai/ha, postemergence) | Plant response rating, Ragweed ([19]; Postemergence, 125 g ai/ha)
15: Plant response rating, Barnyardgrass (Flood) [25]
60: Plant response rating, Barnyardgrass ([12]; Postemergence, 125 g ai/ha) | Plant response rating, Blackgrass ([13]; Postemergence, 125 g ai/ha) | Plant response rating, Ragweed ([19]; 500 g ai/ha, postemergence) | Plant response rating, Horseweed ([24]; 500 g ai/ha, postemergence)
85: Plant response rating, Sedge, Umbrella (Flood) [28]
30: Plant response rating, Corn [3, 30] | Plant response rating, Oat, Wild [6, 30] | Plant response rating, Wheat ([22]; 500 g ai/ha, postemergence) | Plant response rating, Wheat ([22]; Postemergence, 125 g ai/ha) | Plant response rating, Ducksalad (Flood) [26]
50: Ragweed plant response rating [8, 29] | Plant response rating, Kochia ([16]; Postemergence, 125 g ai/ha) | Plant response rating, Pigweed, Palmer ([18]; Postemergence, 125 g ai/ha) | Plant response rating, Ryegrass, Italian ([20]; Postemergence, 125 g ai/ha)
100: Barnyardgrass plant response rating [1, 29] | Foxtail, Giant plant response rating [4, 29] | Plant response rating, Foxtail, Giant [4, 30] | Pigweed, Palmer plant response rating [7, 29] | Ryegrass, Italian plant response rating [9, 29] | Soybean plant response rating [10, 29] | Plant response rating, Soybean [10, 30] | Plant response rating, Soybean ([21]; 500 g ai/ha, postemergence) | Plant response rating, Soybean ([21]; Postemergence, 125 g ai/ha) | Plant response rating, Galium ([23]; 500 g ai/ha, postemergence)
20: Plant response rating, Wheat [11, 30] | Plant response rating, Corn ([14]; Postemergence, 125 g ai/ha) | Plant response rating, Oat, Wild ([17]; Postemergence, 125 g ai/ha)
90: Plant response rating, Barnyardgrass [1, 30] | Corn plant response rating [3, 29] | Oat, Wild plant response rating [6, 29] | Plant response rating, Ryegrass, Italian [9, 30] | Wheat plant response rating [11, 29] | Plant response rating, Barnyardgrass ([12]; 500 g ai/ha, postemergence) | Plant response rating, Foxtail, Giant ([15]; 500 g ai/ha, postemergence) | Plant response rating, Foxtail, Giant ([15]; Postemergence, 125 g ai/ha) | Plant response rating, Pigweed, Palmer ([18]; 500 g ai/ha, postemergence) | Plant response rating, Ryegrass, Italian ([20]; 500 g ai/ha, postemergence)
70: Kochia plant response rating [5, 29] | Plant response rating, Corn ([14]; 500 g ai/ha, postemergence)
80: Blackgrass plant response rating [2, 29] | Plant response rating, Blackgrass [2, 30] | Plant response rating, Blackgrass ([13]; 500 g ai/ha, postemergence) | Plant response rating, Kochia ([16]; 500 g ai/ha, postemergence) | Plant response rating, Galium ([23]; Postemergence, 125 g ai/ha)
0: Plant response rating, Kochia [5, 30] | Plant response rating, Ragweed [8, 30] | Plant response rating, Horseweed ([24]; Postemergence, 125 g ai/ha) | Plant response rating, Rice (Flood) [27]
